Where two headings read alike, the source gives them in different places.
What was measured:
Conditions in all cases: trans-stimulation, solute 2 mM
non-expressing oocytes = assay type: cell-based, Xenopus laevis
In short: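 Oocytes (ten per treatment, ≥4 independent frogs/days) were preloaded by injecting VF-6 in 25 nL ND96 at pH 5.0, 5.5, 6.0 or 7.0, or Na^+-free choline buffer, then uptake run 1.5 h, 27.5 °C, ND96 pH 5.5 by default. Internal concentrations assumed ~400 nL oocyte volume.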

PfCRT^3D7 = PfCRT^3D7 (Plasmodium falciparum, UniProt Q8IBZ9); test: cell-based; assay type: cell-based
Sequence of PfCRT^3D7 (Q8IBZ9 59-398): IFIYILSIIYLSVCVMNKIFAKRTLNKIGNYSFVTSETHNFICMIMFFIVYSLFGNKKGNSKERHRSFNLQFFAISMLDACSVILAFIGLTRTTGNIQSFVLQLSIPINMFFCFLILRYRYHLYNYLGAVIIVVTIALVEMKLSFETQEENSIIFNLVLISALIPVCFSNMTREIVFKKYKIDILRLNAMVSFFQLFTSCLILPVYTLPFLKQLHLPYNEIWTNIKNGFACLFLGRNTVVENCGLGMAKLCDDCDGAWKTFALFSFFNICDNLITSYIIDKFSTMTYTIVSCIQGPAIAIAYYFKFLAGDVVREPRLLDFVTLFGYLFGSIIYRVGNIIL
In short: (§1)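 Transport measured in Xenopus oocytes expressing the transporters, 1.5 h at 27.5 °C in ND96 pH 5.5 unless noted. For trans-stimulation, VF-6 injected in 25 nL ND96 at pH 5.0–7.0 or Na^+-free (choline) buffer; intracellular levels based on ~400 nL oocyte volume. Ten oocytes per treatment, ≥4 experiments.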

PfCRT^Dd2 = PfCRT^Dd2 (Plasmodium falciparum, UniProt Q9N623, A220S/I356T/K76T/M74I/N326S/N75E/Q271E/R371I); test: cell-based; assay type: cell-based
Sequence of PfCRT^Dd2 (Q9N623 whole entry A220S/I356T/K76T/M74I/N326S/N75E/Q271E/R371I): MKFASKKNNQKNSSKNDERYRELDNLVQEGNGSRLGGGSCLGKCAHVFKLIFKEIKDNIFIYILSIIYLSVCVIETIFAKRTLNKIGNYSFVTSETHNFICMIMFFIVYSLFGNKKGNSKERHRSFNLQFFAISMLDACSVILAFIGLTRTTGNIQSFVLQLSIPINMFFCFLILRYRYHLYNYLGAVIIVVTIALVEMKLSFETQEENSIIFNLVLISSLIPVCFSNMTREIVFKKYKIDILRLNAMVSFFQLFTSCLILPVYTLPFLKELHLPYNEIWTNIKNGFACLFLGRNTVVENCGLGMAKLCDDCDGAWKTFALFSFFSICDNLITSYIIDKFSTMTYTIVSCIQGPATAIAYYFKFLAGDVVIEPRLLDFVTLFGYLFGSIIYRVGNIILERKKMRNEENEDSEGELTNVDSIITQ
In short: as §1

PfCRT^Ecu1110 = PfCRT^Ecu1110 (Plasmodium falciparum, UniProt Q9N623, A220S/I356L/K76T/N326D); test: cell-based; assay type: cell-based
Sequence of PfCRT^Ecu1110 (Q9N623 whole entry A220S/I356L/K76T/N326D): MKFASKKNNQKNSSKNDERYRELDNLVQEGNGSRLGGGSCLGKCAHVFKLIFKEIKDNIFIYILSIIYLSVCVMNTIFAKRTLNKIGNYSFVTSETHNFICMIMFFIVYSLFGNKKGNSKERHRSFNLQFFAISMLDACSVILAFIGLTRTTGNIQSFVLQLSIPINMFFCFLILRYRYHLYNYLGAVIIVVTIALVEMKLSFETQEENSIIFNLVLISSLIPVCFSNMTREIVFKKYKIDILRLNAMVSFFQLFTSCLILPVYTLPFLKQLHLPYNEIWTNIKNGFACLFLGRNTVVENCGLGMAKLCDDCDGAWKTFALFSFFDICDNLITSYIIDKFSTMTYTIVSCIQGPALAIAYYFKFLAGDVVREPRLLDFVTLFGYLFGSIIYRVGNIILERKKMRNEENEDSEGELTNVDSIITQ
In short: as §1

PfNT1 = molecular target: T1, PfNT1 (Plasmodium falciparum, UniProt Q8IDM6); test: cell-based; assay type: cell-based
T1 construct: expressed in transfected cells; host or cells: Xenopus laevis oocytes (stage V-VI), cRNA-injected
T1 sequence (Q8IDM6 whole entry): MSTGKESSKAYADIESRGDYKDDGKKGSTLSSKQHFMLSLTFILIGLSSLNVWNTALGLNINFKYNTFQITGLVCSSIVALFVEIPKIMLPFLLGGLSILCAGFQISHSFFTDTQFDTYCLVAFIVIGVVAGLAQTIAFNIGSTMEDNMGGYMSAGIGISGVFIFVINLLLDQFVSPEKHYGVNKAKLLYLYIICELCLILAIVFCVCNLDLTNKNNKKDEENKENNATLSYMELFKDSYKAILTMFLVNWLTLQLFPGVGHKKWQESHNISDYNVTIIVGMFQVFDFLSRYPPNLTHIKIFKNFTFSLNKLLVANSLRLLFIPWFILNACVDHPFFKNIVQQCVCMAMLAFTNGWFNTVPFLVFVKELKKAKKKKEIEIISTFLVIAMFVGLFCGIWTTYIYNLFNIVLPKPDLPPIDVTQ
In short: as §1

With DPVNF [VF-6-derived peptide] the “[3H]CQ transport, non-expressing oocytes” value (non-expressing oocytes; Experiment 1) was 2.53 % PfCRTDd2 control, the “[3H]CQ transport, non-expressing oocytes” value (non-expressing oocytes; Experiment 2) was 2.61 % PfCRTDd2 control and the “[3H]CQ transport, non-expressing oocytes” value (non-expressing oocytes; Experiment 3) was 2.41 % PfCRTDd2 control. The “[3H]CQ transport, non-expressing oocytes” value (non-expressing oocytes; Experiment 4) was 2.43 % PfCRTDd2 control, the “[3H]CQ transport, PfCRT3D7” value (PfCRT^3D7; Experiment 1) was 17.63 % PfCRTDd2 control and the “[3H]CQ transport, PfCRT3D7” value (PfCRT^3D7; Experiment 2) was 14.86 % PfCRTDd2 control. The “[3H]CQ transport, PfCRT3D7” value (PfCRT^3D7; Experiment 3) was 18.47 % PfCRTDd2 control, the “[3H]CQ transport, PfCRT3D7” value (PfCRT^3D7; Experiment 4) was 17.33 % PfCRTDd2 control and the “[3H]CQ transport, PfCRTDd2” value (PfCRT^Dd2; Experiment 1) was 116.36 % PfCRTDd2 control. The “[3H]CQ transport, PfCRTDd2” value (PfCRT^Dd2; Experiment 2) was 119.52 % PfCRTDd2 control, the “[3H]CQ transport, PfCRTDd2” value (PfCRT^Dd2; Experiment 3) was 110.63 % PfCRTDd2 control and the “[3H]CQ transport, PfCRTDd2” value (PfCRT^Dd2; Experiment 4) was 125.53 % PfCRTDd2 control. The “[3H]CQ transport, PfCRTEcu1110” value (PfCRT^Ecu1110; Experiment 1) was 45.52 % PfCRTDd2 control, the “[3H]CQ transport, PfCRTEcu1110” value (PfCRT^Ecu1110; Experiment 2) was 43.68 % PfCRTDd2 control and the “[3H]CQ transport, PfCRTEcu1110” value (PfCRT^Ecu1110; Experiment 3) was 37.35 % PfCRTDd2 control. For the same substance, the “[3H]CQ transport, PfCRTEcu1110” value (PfCRT^Ecu1110; Experiment 4) was 43.35 % PfCRTDd2 control, the “[3H]CQ transport, PfNT1” value (PfNT1; Experiment 1) was 3.85 % PfCRTDd2 control and the “[3H]CQ transport, PfNT1” value (PfNT1; Experiment 2) was 3.98 % PfCRTDd2 control. For the same substance, the “[3H]CQ transport, PfNT1” value (PfNT1; Experiment 3) was 3.94 % PfCRTDd2 control and the “[3H]CQ transport, PfNT1” value (PfNT1; Experiment 4) was 3.99 % PfCRTDd2 control.

In the case of VDPVN [VF-6-derived peptide], the “[3H]CQ transport, non-expressing oocytes” value (non-expressing oocytes; Experiment 1) is reported as 2.84 % PfCRTDd2 control, the “[3H]CQ transport, non-expressing oocytes” value (non-expressing oocytes; Experiment 2) is reported as 2.91 % PfCRTDd2 control and the “[3H]CQ transport, non-expressing oocytes” value (non-expressing oocytes; Experiment 3) is reported as 2.78 % PfCRTDd2 control. The “[3H]CQ transport, non-expressing oocytes” value (non-expressing oocytes; Experiment 4) was 2.94 % PfCRTDd2 control, the “[3H]CQ transport, PfCRT3D7” value (PfCRT^3D7; Experiment 1) was 18.56 % PfCRTDd2 control and the “[3H]CQ transport, PfCRT3D7” value (PfCRT^3D7; Experiment 2) was 19.52 % PfCRTDd2 control. For the same substance, the “[3H]CQ transport, PfCRT3D7” value (PfCRT^3D7; Experiment 3) was 15.43 % PfCRTDd2 control, the “[3H]CQ transport, PfCRT3D7” value (PfCRT^3D7; Experiment 4) was 18.35 % PfCRTDd2 control and the “[3H]CQ transport, PfCRTDd2” value (PfCRT^Dd2; Experiment 1) was 120.53 % PfCRTDd2 control. For the same substance, the “[3H]CQ transport, PfCRTDd2” value (PfCRT^Dd2; Experiment 2) was 112.56 % PfCRTDd2 control, the “[3H]CQ transport, PfCRTDd2” value (PfCRT^Dd2; Experiment 3) was 120.67 % PfCRTDd2 control and the “[3H]CQ transport, PfCRTDd2” value (PfCRT^Dd2; Experiment 4) was 119.43 % PfCRTDd2 control. The “[3H]CQ transport, PfCRTEcu1110” value (PfCRT^Ecu1110; Experiment 1) was 40.67 % PfCRTDd2 control, the “[3H]CQ transport, PfCRTEcu1110” value (PfCRT^Ecu1110; Experiment 2) was 44.84 % PfCRTDd2 control and the “[3H]CQ transport, PfCRTEcu1110” value (PfCRT^Ecu1110; Experiment 3) was 45.43 % PfCRTDd2 control. For the same substance, the “[3H]CQ transport, PfCRTEcu1110” value (PfCRT^Ecu1110; Experiment 4) was 46.24 % PfCRTDd2 control, the “[3H]CQ transport, PfNT1” value (PfNT1; Experiment 1) was 2.85 % PfCRTDd2 control and the “[3H]CQ transport, PfNT1” value (PfNT1; Experiment 2) was 2.88 % PfCRTDd2 control. The “[3H]CQ transport, PfNT1” value (PfNT1; Experiment 3) was 2.95 % PfCRTDd2 control and the “[3H]CQ transport, PfNT1” value (PfNT1; Experiment 4) was 2.89 % PfCRTDd2 control.

For DPVN [VF-6-derived peptide], the “[3H]CQ transport, non-expressing oocytes” value (non-expressing oocytes; Experiment 1) was 2.53 % PfCRTDd2 control, the “[3H]CQ transport, non-expressing oocytes” value (non-expressing oocytes; Experiment 2) was 2.64 % PfCRTDd2 control and the “[3H]CQ transport, non-expressing oocytes” value (non-expressing oocytes; Experiment 3) was 2.41 % PfCRTDd2 control. For the same substance, the “[3H]CQ transport, non-expressing oocytes” value (non-expressing oocytes; Experiment 4) was 2.56 % PfCRTDd2 control, the “[3H]CQ transport, PfCRT3D7” value (PfCRT^3D7; Experiment 1) was 12.64 % PfCRTDd2 control and the “[3H]CQ transport, PfCRT3D7” value (PfCRT^3D7; Experiment 2) was 13.46 % PfCRTDd2 control. For the same substance, the “[3H]CQ transport, PfCRT3D7” value (PfCRT^3D7; Experiment 3) was 12.14 % PfCRTDd2 control, the “[3H]CQ transport, PfCRT3D7” value (PfCRT^3D7; Experiment 4) was 11.36 % PfCRTDd2 control and the “[3H]CQ transport, PfCRTDd2” value (PfCRT^Dd2; Experiment 1) was 100.43 % PfCRTDd2 control. For the same substance, the “[3H]CQ transport, PfCRTDd2” value (PfCRT^Dd2; Experiment 2) was 99.77 % PfCRTDd2 control, the “[3H]CQ transport, PfCRTDd2” value (PfCRT^Dd2; Experiment 3) was 98.92 % PfCRTDd2 control and the “[3H]CQ transport, PfCRTDd2” value (PfCRT^Dd2; Experiment 4) was 101.43 % PfCRTDd2 control. For the same substance, the “[3H]CQ transport, PfCRTEcu1110” value (PfCRT^Ecu1110; Experiment 1) was 32.63 % PfCRTDd2 control, the “[3H]CQ transport, PfCRTEcu1110” value (PfCRT^Ecu1110; Experiment 2) was 30.52 % PfCRTDd2 control and the “[3H]CQ transport, PfCRTEcu1110” value (PfCRT^Ecu1110; Experiment 3) was 37.36 % PfCRTDd2 control. The “[3H]CQ transport, PfCRTEcu1110” value (PfCRT^Ecu1110; Experiment 4) was 30.52 % PfCRTDd2 control, the “[3H]CQ transport, PfNT1” value (PfNT1; Experiment 1) was 3.52 % PfCRTDd2 control and the “[3H]CQ transport, PfNT1” value (PfNT1; Experiment 2) was 3.38 % PfCRTDd2 control. The “[3H]CQ transport, PfNT1” value (PfNT1; Experiment 3) was 3.26 % PfCRTDd2 control and the “[3H]CQ transport, PfNT1” value (PfNT1; Experiment 4) was 3.33 % PfCRTDd2 control.

Source: paper PMC7413254 (Nature Communications, 2020)
